Reference: ChEMBL document CHEMBL4330105, “Identification of novel azaindazole CCR1 antagonist clinical candidates” (Bioorg Med Chem Lett, 2019)

Tests used:
Type in all cases: ADME, organism-based
[1] = Clearance in Sprague-Dawley rat at 10 mg/kg, po or 1 mg/kg, iv relative to hepatic blood flow; settings: in vivo
[2] = Oral bioavailability in Sprague-Dawley rat at 10 mg/kg; settings: in vivo
[3] = Volume of distribution at steady state in Sprague-Dawley rat at 10 mg/kg, po or 1 mg/kg, iv; settings: in vivo, read-out: Vdss

SMILES: CS(=O)(=O)c1cc(CNC(=O)c2cncc3c2cnn3-c2ccc(F)cc2)ccn1
- CL [1]: 8%
- bioavailability [2]: 29%
- Vd [3]: 1.2 L/kg
